How the values were obtained:
[1] = Antifungal activity against Cryptococcus gattii SCZ20024 assessed as fungal growth inhibition incubated for 48 hrs by broth microdilution method; type: functional, Cryptococcus gattii VGI
[2] = Antifungal activity against Cryptococcus gattii SCZ20031 assessed as fungal growth inhibition incubated for 48 hrs by broth microdilution method; type: functional, Cryptococcus gattii VGI
[3] = Antifungal activity against Cryptococcus gattii WM179 assessed as fungal growth inhibition incubated for 48 hrs by broth microdilution method; type: functional, Cryptococcus gattii VGI
Pichia kudriavzevii [4] = test: Antifungal activity against Candida krusei 472 assessed as fungal growth inhibition incubated for 48 hrs by broth microdilution method; type: functional
Pichia kudriavzevii [5] = test: Antifungal activity against Candida krusei 68 assessed as fungal growth inhibition incubated for 48 hrs by broth microdilution method; type: functional
[Candida] auris [6] = Antifungal activity against Candida auris 888 assessed as fungal growth inhibition incubated for 48 hrs by broth microdilution method; type: functional; settings: Candidozyma auris
Candida albicans [7] = test: Antifungal activity against Candida albicans SC5314 assessed as fungal growth inhibition incubated for 48 hrs by broth microdilution method; type: functional
Aspergillus fumigatus [8] = test: Antifungal activity against Aspergillus fumigatus 7544 assessed as fungal growth inhibition incubated for 48 hrs by broth microdilution method; type: functional
Candida tropicalis [9] = test: Antifungal activity against Candida tropicalis 182 assessed as fungal growth inhibition incubated for 48 hrs by broth microdilution method; type: functional
Candida tropicalis [10] = test: Antifungal activity against Candida tropicalis 177 assessed as fungal growth inhibition incubated for 48 hrs by broth microdilution method; type: functional
Candida tropicalis [11] = test: Antifungal activity against Candida tropicalis 178 assessed as fungal growth inhibition incubated for 48 hrs by broth microdilution method; type: functional
Candida albicans [12] = test: Antifungal activity against Candida albicans 338 assessed as fungal growth inhibition incubated for 48 hrs by broth microdilution method; type: functional
Candida tropicalis [13] = test: Antifungal activity against Candida tropicalis 176 assessed as fungal growth inhibition incubated for 48 hrs by broth microdilution method; type: functional
Nakaseomyces glabratus [14] = test: Antifungal activity against Candida glabrata 222 assessed as fungal growth inhibition incubated for 48 hrs by broth microdilution method; type: functional
Cryptococcus neoformans [15] = test: Antifungal activity against Cryptococcus neoformans HN15 assessed as fungal growth inhibition incubated for 48 hrs by broth microdilution method; type: functional
Candida albicans [16] = test: Antifungal activity against Candida albicans 25 assessed as fungal growth inhibition incubated for 48 hrs by broth microdilution method; type: functional
[Candida] auris [17] = Antifungal activity against Candida auris 276 assessed as fungal growth inhibition incubated for 48 hrs by broth microdilution method; type: functional; settings: Candidozyma auris
Cryptococcus neoformans [18] = test: Antifungal activity against Cryptococcus neoformans 443 assessed as fungal growth inhibition incubated for 48 hrs by broth microdilution method; type: functional
Candida albicans [19] = test: Antifungal activity against Candida albicans 21 assessed as fungal growth inhibition incubated for 48 hrs by broth microdilution method; type: functional
Cryptococcus neoformans [20] = test: Antifungal activity against Cryptococcus neoformans 445 assessed as fungal growth inhibition incubated for 48 hrs by broth microdilution method; type: functional
[21] = Cytotoxicity against human Caco-2 cells assessed as cell growth inhibition incubated for 24 hrs by CCK8 assay; type: toxicity, cell-based
Candida parapsilosis [22] = test: Antifungal activity against Candida parapsilosis 107 assessed as fungal growth inhibition incubated for 48 hrs by broth microdilution method; type: functional; settings: Lodderomyces parapsilosis
Pichia kudriavzevii [23] = test: Antifungal activity against Candida krusei 471 assessed as fungal growth inhibition incubated for 48 hrs by broth microdilution method; type: functional
Cryptococcus neoformans [24] = test: Antifungal activity against Cryptococcus neoformans H99 assessed as fungal growth inhibition incubated for 48 hrs by broth microdilution method; type: functional
[Candida] auris [25] = Antifungal activity against Candida auris 887 assessed as fungal growth inhibition incubated for 48 hrs by broth microdilution method; type: functional; settings: Candidozyma auris
Cryptococcus neoformans [26] = test: Antifungal activity against Cryptococcus neoformans HN17 assessed as fungal growth inhibition incubated for 48 hrs by broth microdilution method; type: functional
Cryptococcus neoformans [27] = test: Antifungal activity against Cryptococcus neoformans BJ3 assessed as fungal growth inhibition incubated for 48 hrs by broth microdilution method; type: functional
Cryptococcus neoformans [28] = test: Antifungal activity against Cryptococcus neoformans HN2-40 assessed as fungal growth inhibition incubated for 48 hrs by broth microdilution method; type: functional
Candida albicans [29] = test: Antifungal activity against Candida albicans 22 assessed as fungal growth inhibition incubated for 48 hrs by broth microdilution method; type: functional
[30] = Antifungal activity against Cryptococcus gattii WM178 assessed as fungal growth inhibition incubated for 48 hrs by broth microdilution method; type: functional, Cryptococcus gattii VGI
Cryptococcus neoformans [31] = test: Antifungal activity against Cryptococcus neoformans 56992 assessed as fungal growth inhibition incubated for 48 hrs by broth microdilution method; type: functional
Nakaseomyces glabratus [32] = test: Antifungal activity against Candida glabrata 205 assessed as fungal growth inhibition incubated for 48 hrs by broth microdilution method; type: functional
Nakaseomyces glabratus [33] = test: Antifungal activity against Candida glabrata 201 assessed as fungal growth inhibition incubated for 48 hrs by broth microdilution method; type: functional
Candida tropicalis [34] = test: Antifungal activity against Candida tropicalis 172 assessed as fungal growth inhibition incubated for 48 hrs by broth microdilution method; type: functional
Pichia kudriavzevii [35] = test: Antifungal activity against Candida krusei 69 assessed as fungal growth inhibition incubated for 48 hrs by broth microdilution method; type: functional
Candida albicans [36] = test: Antifungal activity against Candida albicans 337 assessed as fungal growth inhibition incubated for 48 hrs by broth microdilution method; type: functional
Cryptococcus neoformans [37] = test: Antifungal activity against Cryptococcus neoformans HN1 assessed as fungal growth inhibition incubated for 48 hrs by broth microdilution method; type: functional
Candida parapsilosis [38] = test: Antifungal activity against Candida parapsilosis 105 assessed as fungal growth inhibition incubated for 48 hrs by broth microdilution method; type: functional; settings: Lodderomyces parapsilosis
Cryptococcus neoformans [39] = test: Antifungal activity against Cryptococcus neoformans HN19 assessed as fungal growth inhibition incubated for 48 hrs by broth microdilution method; type: functional
Nakaseomyces glabratus [40] = test: Antifungal activity against Candida glabrata 202 assessed as fungal growth inhibition incubated for 48 hrs by broth microdilution method; type: functional
Candida parapsilosis [41] = test: Antifungal activity against Candida parapsilosis 125 assessed as fungal growth inhibition incubated for 48 hrs by broth microdilution method; type: functional; settings: Lodderomyces parapsilosis
Candida parapsilosis [42] = test: Antifungal activity against Candida parapsilosis 104 assessed as fungal growth inhibition incubated for 48 hrs by broth microdilution method; type: functional; settings: Lodderomyces parapsilosis
Candida parapsilosis [43] = test: Antifungal activity against Candida parapsilosis ATCC22019 assessed as fungal growth inhibition incubated for 48 hrs by broth microdilution method; type: functional; settings: Lodderomyces parapsilosis
Aspergillus fumigatus [44] = test: Antifungal activity against Aspergillus fumigatus A assessed as fungal growth inhibition incubated for 48 hrs by broth microdilution method; type: functional
Cryptococcus neoformans [45] = test: Antifungal activity against Cryptococcus neoformans SH68 assessed as fungal growth inhibition incubated for 48 hrs by broth microdilution method; type: functional
Pichia kudriavzevii [46] = test: Antifungal activity against Candida krusei 474 assessed as fungal growth inhibition incubated for 48 hrs by broth microdilution method; type: functional
Candida tropicalis [47] = test: Antifungal activity against Candida tropicalis 184 assessed as fungal growth inhibition incubated for 48 hrs by broth microdilution method; type: functional
[48] = Antifungal activity against Cryptococcus gattii E566 assessed as fungal growth inhibition incubated for 48 hrs by broth microdilution method; type: functional, Cryptococcus gattii VGI
Pichia kudriavzevii [49] = test: Antifungal activity against Candida krusei 477 assessed as fungal growth inhibition incubated for 48 hrs by broth microdilution method; type: functional
Nakaseomyces glabratus [50] = test: Antifungal activity against Candida glabrata 204 assessed as fungal growth inhibition incubated for 48 hrs by broth microdilution method; type: functional
Cryptococcus neoformans [51] = test: Antifungal activity against Cryptococcus neoformans HN20 assessed as fungal growth inhibition incubated for 48 hrs by broth microdilution method; type: functional
Cryptococcus neoformans [52] = test: Antifungal activity against Cryptococcus neoformans HN2 assessed as fungal growth inhibition incubated for 48 hrs by broth microdilution method; type: functional
[Candida] auris [53] = Antifungal activity against Candida auris CBS 12372 assessed as fungal growth inhibition incubated for 48 hrs by broth microdilution method; type: functional; settings: Candidozyma auris

OC(Cn1cncn1)(Cn1cncn1)c1ccc(F)cc1F [FLUCONAZOLE]
2 µg/mL: MIC (Candida tropicalis [10]) | MIC (Candida tropicalis [11]) | MIC (Candida tropicalis [13]) | MIC ([Candida] auris [17]) | MIC (Candida tropicalis [47]) | MIC [48] | MIC (Cryptococcus neoformans [51])
0.25 µg/mL: MIC (Pichia kudriavzevii [5]) | MIC (Pichia kudriavzevii [35]) | MIC (Candida albicans [36]) | MIC (Pichia kudriavzevii [49])
0.5 µg/mL: MIC (Candida albicans [7]) | MIC (Candida albicans [12]) | MIC (Candida albicans [16]) | MIC (Candida albicans [19]) | MIC (Candida albicans [29]) | MIC (Candida parapsilosis [42]) | MIC (Candida parapsilosis [43])
1 µg/mL: MIC (Nakaseomyces glabratus [14]) | MIC (Nakaseomyces glabratus [32]) | MIC (Nakaseomyces glabratus [33]) | MIC (Nakaseomyces glabratus [40]) | MIC (Nakaseomyces glabratus [50])
16 µg/mL: MIC (Cryptococcus neoformans [26]) | MIC (Cryptococcus neoformans [27])
4 µg/mL: MIC [1] | MIC [2] | MIC [3] | MIC (Cryptococcus neoformans [15]) | MIC [30] | MIC (Cryptococcus neoformans [31]) | MIC (Cryptococcus neoformans [37]) | MIC (Cryptococcus neoformans [52])
0.125 µg/mL: MIC (Candida tropicalis [9]) | MIC (Candida tropicalis [34])
> 64 µg/mL: MIC (Pichia kudriavzevii [4]) | MIC ([Candida] auris [6]) | MIC (Aspergillus fumigatus [8]) | IC50 at 24 h [21] | MIC (Candida parapsilosis [22]) | MIC (Pichia kudriavzevii [23]) | MIC ([Candida] auris [25]) | MIC (Candida parapsilosis [38]) | MIC (Candida parapsilosis [41]) | MIC (Aspergillus fumigatus [44]) | MIC (Pichia kudriavzevii [46]) | MIC ([Candida] auris [53])
8 µg/mL: MIC (Cryptococcus neoformans [18]) | MIC (Cryptococcus neoformans [20]) | MIC (Cryptococcus neoformans [24]) | MIC (Cryptococcus neoformans [28]) | MIC (Cryptococcus neoformans [39]) | MIC (Cryptococcus neoformans [45])

CCN(CC)c1ccc(C(NC(=O)C(C)C)c2ccc3cccnc3c2O)cc1 (stereo unspecified)
0.032 µg/mL: MIC (Pichia kudriavzevii [5]) | MIC (Candida tropicalis [11]) | MIC (Pichia kudriavzevii [23]) | MIC (Cryptococcus neoformans [31]) | MIC (Nakaseomyces glabratus [33]) | MIC (Candida albicans [36]) | MIC (Nakaseomyces glabratus [40])
0.031 µg/mL: MIC [1] | MIC [2] | MIC [3] | MIC [30] | MIC [48]
1 µg/mL: MIC (Aspergillus fumigatus [8])
0.25 µg/mL: MIC ([Candida] auris [6]) | MIC ([Candida] auris [25])
< 0.016 µg/mL: MIC (Cryptococcus neoformans [28]) | MIC (Cryptococcus neoformans [45])
≤ 0.125 µg/mL: MIC (Candida albicans [19])
0.125 µg/mL: MIC (Pichia kudriavzevii [4]) | MIC (Candida tropicalis [9]) | MIC (Candida tropicalis [10]) | MIC (Nakaseomyces glabratus [14]) | MIC (Candida parapsilosis [22]) | MIC (Cryptococcus neoformans [24]) | MIC (Nakaseomyces glabratus [32]) | MIC (Pichia kudriavzevii [35]) | MIC (Candida parapsilosis [38]) | MIC (Candida parapsilosis [41]) | MIC (Candida parapsilosis [43]) | MIC (Pichia kudriavzevii [46]) | MIC (Candida tropicalis [47]) | MIC (Pichia kudriavzevii [49])
0.016 µg/mL: MIC (Candida tropicalis [13]) | MIC (Cryptococcus neoformans [18]) | MIC (Cryptococcus neoformans [20]) | MIC (Candida parapsilosis [42]) | MIC (Nakaseomyces glabratus [50]) | MIC (Cryptococcus neoformans [51])
0.063 µg/mL: MIC (Candida albicans [7]) | MIC (Candida albicans [12]) | MIC (Cryptococcus neoformans [15]) | MIC (Candida albicans [16]) | MIC ([Candida] auris [17]) | MIC (Cryptococcus neoformans [26]) | MIC (Cryptococcus neoformans [27]) | MIC (Candida albicans [29]) | MIC (Candida tropicalis [34]) | MIC (Cryptococcus neoformans [37]) | MIC (Cryptococcus neoformans [39]) | MIC (Cryptococcus neoformans [52]) | MIC ([Candida] auris [53])
72.6 µg/mL: IC50 at 24 h [21]
0.5 µg/mL: MIC (Aspergillus fumigatus [44])

From ChEMBL document CHEMBL5375952, “Discovery of Novel 8-Hydroxyquinoline Derivatives with Potent In Vitro and In Vivo Antifungal Activity” (J Med Chem, 2023)
